≈ marks a conversion by molar mass, not a printed value.
Experiment: Solubility in different aqueous media
Assay type: physicochemical
Conditions: for solubility at 24 h: thermodynamic from solid

For CCC(CC)c1cc(C)nc2c(-c3sc(N4CCOCC4)nc3Cl)c(C)nn12 [Compound 1, 4-(4-chloro-5-(2,5-dimethyl-7-(pentan-3-yl)pyrazolo[1,5-a]pyrimidin-3-yl)thiazol-2-yl)morpholine], the “Description (solubility)” value (0.001N HCl, equilibrium pH 3.36) was “Insoluble”, the “Description (solubility)” value (0.01N HCl, equilibrium pH 2.06) was “Insoluble” and the “Description (solubility)” value (0.1N HCl, equilibrium pH 1.06) was “insoluble”. For the same compound, the “Description (solubility)” value (0.1N NaOH, equilibrium pH 11.65) was “Insoluble”, the “Description (solubility)” value (FaSSIF, equilibrium pH 5.16) was “insoluble” and the “Description (solubility)” value (FaSSIF, equilibrium pH 6.73) was “Insoluble”. The “Description (solubility)” value (SGF, equilibrium pH 2.25) was “Insoluble”, the “Description (solubility)” value (Water, equilibrium pH 7.78) was “insoluble” and the solubility at 24 h (aqueous buffer, 0.001N HCl, equilibrium pH 3.36, 24 hours at room temperature) was 0.3 µg/mL (≈ 0.714 µM). The solubility at 24 h (aqueous buffer, 0.1N NaOH, equilibrium pH 11.65, 24 hours at room temperature) was 0.2 µg/mL (≈ 0.476 µM), the “Description (solubility)” value (pH 4.5 Acetate (USP), equilibrium pH 4.65) was “Insoluble” and the solubility at 24 h (pH 4.5 acetate buffer (USP), aqueous buffer, pH 4.5 Acetate (USP), equilibrium pH 4.65, 24 hours at room temperature) was 0.5 µg/mL (≈ 1.19 µM). The “Description (solubility)” value (pH 6.0 Phosphate (USP), equilibrium pH 6.08) was “Insoluble”, the solubility at 24 h (pH 6.0 phosphate buffer (USP), aqueous buffer, pH 6.0 Phosphate (USP), equilibrium pH 6.08, 24 hours at room temperature) was 0.2 µg/mL (≈ 0.476 µM) and the “Description (solubility)” value (pH 7.5 Phosphate (USP), equilibrium pH 7.57) was “Insoluble”. It also gave a solubility at 24 h (pH 7.5 phosphate buffer (USP), aqueous buffer, pH 7.5 Phosphate (USP), equilibrium pH 7.57, 24 hours at room temperature) of 0.6 µg/mL (≈ 1.43 µM), a solubility at 24 h (simulated gastric fluid, 0.01N HCl, equilibrium pH 2.06, 24 hours at room temperature) of 0.4 µg/mL (≈ 0.952 µM) and a solubility at 24 h (simulated gastric fluid, 0.1N HCl, equilibrium pH 1.06, 24 hours at room temperature) of 1.8 µg/mL (≈ 4.29 µM). It also gave a solubility at 24 h (simulated gastric fluid, SGF, equilibrium pH 2.25, 24 hours at room temperature) of 20.4 µg/mL (≈ 48.6 µM), a solubility at 24 h (FaSSIF, equilibrium pH 5.16, 24 hours at room temperature) of 10.4 µg/mL (≈ 24.8 µM) and a solubility at 24 h (FaSSIF, equilibrium pH 6.73, 24 hours at room temperature) of 3.6 µg/mL (≈ 8.57 µM). For the same compound, the solubility at 24 h (Water, equilibrium pH 7.78, 24 hours at room temperature, n = 2) was 0.3 µg/mL (≈ 0.714 µM).

Source: patent US20200255436A1, “CORTICOTROPIN RELEASING FACTOR RECEPTOR ANTAGONISTS” (Spruce Biosciences, Inc., priority 2019, published 2020)
